# Results as given in patent US11046699B2, “Pyrazolo-pyrimidin-amino-cycloalkyl compounds and their therapeutic uses” (RAPT THERAPEUTICS, INC., priority 2018, dated 2021).
# Target: GCN2 (Homo sapiens, UniProt Q9P2K8)
# Assay: GCN2 enzymatic endpoint assay: phosphorylation of GFP-eIF2α measured by TR-FRET (Lanthascreen)
# Format: biochemical
# Settings: GCN2 biochemical IC50; 4 nM GCN2, 2 μM ATP, 80 nM GFP-eIF2α, 90 min RT; read-out: GCN2 activity
# Summary of the method: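 Endpoint GCN2 reaction with low ATP (2 μM) and 80 nM GFP-eIF2α, room temperature, 90 minutes. Detection mix with EDTA and Tb-labelled antibody; 520 nm/495 nm emission ratio reported.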
# Sequence of GCN2 (Q9P2K8 whole entry): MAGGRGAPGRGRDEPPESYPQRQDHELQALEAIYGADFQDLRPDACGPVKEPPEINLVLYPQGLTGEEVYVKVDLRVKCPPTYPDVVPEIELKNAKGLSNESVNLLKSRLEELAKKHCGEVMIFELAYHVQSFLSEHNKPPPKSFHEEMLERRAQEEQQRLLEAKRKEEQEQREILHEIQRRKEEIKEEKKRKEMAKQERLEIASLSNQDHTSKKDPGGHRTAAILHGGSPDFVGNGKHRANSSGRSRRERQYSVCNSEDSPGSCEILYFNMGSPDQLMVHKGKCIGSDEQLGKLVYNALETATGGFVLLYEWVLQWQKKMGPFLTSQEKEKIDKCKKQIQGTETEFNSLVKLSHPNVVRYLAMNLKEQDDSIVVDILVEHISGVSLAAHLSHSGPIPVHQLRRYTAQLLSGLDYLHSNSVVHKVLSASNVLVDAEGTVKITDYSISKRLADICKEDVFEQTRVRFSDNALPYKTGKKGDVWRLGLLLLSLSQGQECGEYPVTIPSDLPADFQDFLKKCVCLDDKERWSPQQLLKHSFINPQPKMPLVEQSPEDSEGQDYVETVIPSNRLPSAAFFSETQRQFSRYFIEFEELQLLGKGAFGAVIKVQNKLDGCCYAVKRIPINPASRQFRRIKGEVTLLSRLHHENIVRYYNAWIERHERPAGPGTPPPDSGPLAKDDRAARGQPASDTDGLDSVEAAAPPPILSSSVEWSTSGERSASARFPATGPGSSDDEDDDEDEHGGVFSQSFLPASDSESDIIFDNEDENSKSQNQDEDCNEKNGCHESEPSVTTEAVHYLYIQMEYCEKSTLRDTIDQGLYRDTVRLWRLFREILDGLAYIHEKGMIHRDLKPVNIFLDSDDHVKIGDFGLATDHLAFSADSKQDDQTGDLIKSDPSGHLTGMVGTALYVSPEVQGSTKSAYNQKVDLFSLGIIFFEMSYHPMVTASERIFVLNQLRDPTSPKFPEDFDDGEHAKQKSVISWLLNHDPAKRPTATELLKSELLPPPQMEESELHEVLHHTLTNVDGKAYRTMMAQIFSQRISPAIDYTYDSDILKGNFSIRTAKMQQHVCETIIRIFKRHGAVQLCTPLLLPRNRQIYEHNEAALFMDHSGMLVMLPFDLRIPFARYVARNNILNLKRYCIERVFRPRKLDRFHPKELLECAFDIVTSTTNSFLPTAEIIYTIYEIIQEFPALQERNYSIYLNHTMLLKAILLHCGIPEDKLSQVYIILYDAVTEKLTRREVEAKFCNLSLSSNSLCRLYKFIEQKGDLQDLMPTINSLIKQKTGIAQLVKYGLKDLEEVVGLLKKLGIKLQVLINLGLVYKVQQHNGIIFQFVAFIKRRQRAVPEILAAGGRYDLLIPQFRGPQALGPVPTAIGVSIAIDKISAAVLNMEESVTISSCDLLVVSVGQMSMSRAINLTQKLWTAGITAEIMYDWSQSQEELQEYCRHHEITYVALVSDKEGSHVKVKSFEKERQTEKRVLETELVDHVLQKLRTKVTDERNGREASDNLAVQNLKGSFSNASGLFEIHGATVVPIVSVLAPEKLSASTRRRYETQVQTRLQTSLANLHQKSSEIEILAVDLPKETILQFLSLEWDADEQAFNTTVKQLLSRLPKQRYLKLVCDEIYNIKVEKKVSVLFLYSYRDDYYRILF
row,Structure (SMILES),IC50 [nM]
1,"CNC(=O)C1(C)CC[C@@H](Nc2ncc3c(Br)nn(-c4ccc(-c5cccnc5)c(C#N)c4)c3n2)C1 (stereo partly drawn) [Example 44, (3R)-3-((3-bromo-1-(3-cyano-4-(pyridin-3-yl)phenyl)-1H-pyrazolo[3,4-d]pyrimidin-6-yl)amino)-N,1-dimethylcyclopentane-1-carboxamide; 2,2,2-trifluoroacetic acid]",25 to 200
2,"CN(C)C(=O)[C@]1(C)CC[C@@H](Nc2ncc3c(Br)nn(-c4cc(CCN)c5ncccc5c4)c3n2)C1 [Example 30, (1R,3R)-3-((1-(8-(2-aminoethyl)quinolin-6-yl)-3-bromo-1H-pyrazolo[3,4-d]pyrimidin-6-yl)amino)-N,N,1-trimethylcyclopentane-1-carboxamide; 2,2,2-trifluoroacetic acid]",< 25
3,"C[C@H](N)c1cc(Cl)cc(-n2nc(Br)c3cnc(N[C@@H]4CC[C@@](C)(O)C4)nc32)c1 [Example 75, (1R,3R)-3-((1-(3-((S)-1-aminoethyl)-5-chlorophenyl)-3-bromo-1H-pyrazolo[3,4-d]pyrimidin-6-yl)amino)-1-methylcyclopentan-1-ol]",25 to 200
4,"CNC(=O)[C@]1(C)CC[C@@H](Nc2ncc3c(Br)nn(-c4cc(Cl)cc(CO)c4)c3n2)C1 [Example 46, (1R,3R)-3-((3-bromo-1-(3-chloro-5-(hydroxymethyl)phenyl)-1H-pyrazolo[3,4-d]pyrimidin-6-yl)amino)-N,1-dimethylcyclopentane-1-carboxamide; 2,2,2-trifluoroacetic acid]",25 to 200
5,"COCCNC(=O)[C@@H]1CC[C@@H](Nc2ncc3c(Br)nn(-c4ccc(-c5cccnc5)cc4)c3n2)C1 [Example 24, (1R,3R)-3-((3-bromo-1-(4-(pyridin-3-yl)phenyl)-1H-pyrazolo[3,4-d]pyrimidin-6-yl)amino)-N-(2-methoxyethyl)cyclopentane-1-carboxamide]",200 to 500
6,"COCCNC(=O)[C@@H]1CC[C@@H](Nc2ncc3c(Br)nn(-c4ccc5cnccc5c4)c3n2)C1 [Example 6, (1R,3R)-3-((3-bromo-1-(isoquinolin-6-yl)-1H-pyrazolo[3,4-d]pyrimidin-6-yl)amino)-N-(2-methoxyethyl)cyclopentane-1-carboxamide]",25 to 200

# Same assay, conditions: tested as described in Example 77; compound and/or hydrochloride, dihydrochloride or trifluoroacetic acid salt; read-out: IC 50 Activity
row,Structure (SMILES),IC50 [nM]
1,"C[C@@H]1CN(C(=O)[C@@H]2CC[C@@H](Nc3ncc4c(Br)nn(-c5ccc6ncccc6c5)c4n3)C2)C[C@H](C)O1 [((1R,3R)-3-((3-bromo-1-(quinolin-6-yl)-1H-pyrazolo[3,4-d]pyrimidin-6-yl)amino)cyclopentyl)((2S,6R)-2,6-dimethylmorpholino) methanone]",200 to 500
2,"CNC(=O)[C@]1(C)CC[C@@H](Nc2ncc3c(Br)nn(-c4ccc(-c5ncco5)c(CNS(C)(=O)=O)c4)c3n2)C1 [(1R,3R)-3-[[3-bromo-1-[3-(methane-sulfonamidomethyl)-4-oxazol-2-yl-phenyl]pyrazolo[3,4-d]pyrimidin-6-yl]amino]-N,1-dimethyl-cyclopentanecarboxamide]",25 to 200
3,"CNC(=O)[C@]1(C)CC[C@@H](Nc2ncc3c(Br)nn(-c4ccc5ncc(OCCOC)cc5c4)c3n2)C1 [(1R,3R)-3-[[3-bromo-1-[3-(2-methoxy-ethoxy)-6-quinolyl]pyrazolo[3,4-d]pyrimidin-6-yl]amino]-N,1-dimethyl-cyclopentanecarboxamide]",25 to 200
4,"Cc1nnc(-c2ccc(-n3nc(Br)c4cnc(N[C@@H]5CC[C@@](C)(C(=O)NC6CC6)C5)nc43)cc2)s1 [(1R,3R)-3-[[3-bromo-1-[4-(5-methyl-1,3,4-thiadiazol-2-yl)phenyl]pyrazolo[3,4-d]pyrimidin-6-yl]amino]-N-cyclopropyl-1-methyl-cyclopentanecarboxamide]",25 to 200
5,"CNC(=O)[C@]1(C)CC[C@@H](Nc2ncc3c(Br)nn(-c4cc(CCO)c5nc(C)ccc5c4)c3n2)C1 [(1R,3R)-3-[[3-bromo-1-[8-(2-hydroxy-ethyl)-2-methyl-6-quinolyl]pyrazolo[3,4-d]pyrimidin-6-yl]amino]-N,1-dimethyl-cyclopentanecarboxamide]",25 to 200
6,"CNC(=O)[C@]1(C)CC[C@@H](Nc2ncc3c(Br)nn(-c4cccc(NC(=O)c5ccn[nH]5)c4)c3n2)C1 [N-[3-[3-bromo-6-[[(1R,3R)-3-methyl-3-(methylcarbamoyl)cyclopentyl]amino]pyrazolo[3,4-d]pyrimidin-1-yl]phenyl]-1H-pyrazole-5-carboxamide]",25 to 200
7,"CNC(=O)[C@]1(C)CC[C@@H](Nc2ncc3c(Br)nn(-c4ccc(-c5nnc(CCOC)o5)cc4)c3n2)C1 [(1R,3R)-3-[[3-bromo-1-[4-[5-(2-methoxy-ethyl)-1,3,4-oxadiazol-2-yl]phenyl]pyrazolo [3,4-d]pyrimidin-6-yl]amino]-N,1-dimethyl-cyclopentanecarboxamide]",< 25
8,"CNC(=O)[C@]1(C)CC[C@@H](Nc2ncc3c(Br)nn(-c4cc(C#N)cc(OCC5CNC5)c4)c3n2)C1 [(1R,3R)-3-[[1-[3-(azetidin-3-ylmethoxy)-5-cyano-phenyl]-3-bromo-pyrazolo[3,4-d]pyrimidin-6-yl]amino]-N,1-dimethyl-cyclopentanecarboxamide]",< 25
9,"CNC(=O)[C@@H]1CC[C@@H](Nc2ncc3c(Br)nn(-c4cc(C#N)c5ncccc5c4)c3n2)C1 [(1R,3R)-3-((3-bromo-1-(8-cyanoquinolin-6-yl)-1H-pyrazolo[3,4-d]pyrimidin-6-yl)amino)-N-methylcyclopentane-1-carboxamide]",< 25
10,"Cc1nnc(-c2ccc(-n3nc(Br)c4cnc(N[C@@H]5CC[C@@](C)(C(=O)N6CCCC6)C5)nc43)cc2)s1 [[(1R,3R)-3-[[3-bromo-1-[4-(5-methyl-1,3,4-thiadiazol-2-yl)phenyl]pyrazolo[3,4-d]pyrimidin-6-yl]amino]-1-methyl-cyclopentyl]-pyrrolidin-1-yl-methanone]",25 to 200
11,"CNC(=O)[C@]1(C)CC[C@@H](Nc2ncc3c(Br)nn(-c4ccc5c(c4)CN(C(=O)C4CN(C(=O)C(F)(F)F)C4)CC5)c3n2)C1 [(1R,3R)-3-[[3-bromo-1-[2-[1-(2,2,2-trifluoroacetyl)azetidine-3-carbonyl]-3,4-dihydro-1H-isoquinolin-7-yl]pyrazolo[3,4-d]pyrimidin-6-yl]amino]-N,1-dimethyl-cyclopentanecarboxamide]",25 to 200
12,"CNC(=O)[C@]1(C)CC[C@@H](Nc2ncc3c(Br)nn(-c4cc(CN)cc(C(F)(F)F)c4)c3n2)C1 [(1R,3R)-3-[[1-[3-(aminomethyl)-5-(trifluoromethyl)phenyl]-3-bromo-pyrazolo[3,4-d]pyrimidin-6-yl]amino]-N,1-dimethyl-cyclopentanecarboxamide; 2,2,2-trifluoroacetic acid]",25 to 200
13,"CC1(C(=O)N2CCC(F)(C#N)C2)CC[C@@H](Nc2ncc3c(Br)nn(-c4cc(F)c5ncccc5c4)c3n2)C1 (stereo partly drawn) [1-[(3R)-3-[[3-bromo-1-(8-fluoro-6-quinolyl)pyrazolo[3,4-d]pyrimidin-6-yl]amino]-1-methyl-cyclopentanecarbonyl]-3-fluoro-pyrrolidine-3-carbonitrile]",25 to 200
14,"CNC(=O)[C@]1(C)CC[C@@H](Nc2ncc3c(Br)nn(-c4ccc(-c5cccnc5)c(CN)c4)c3n2)C1 [(1R,3R)-3-[[1-[3-(aminomethyl)-4-(3-pyridyl)phenyl]-3-bromo-pyrazolo[3,4-d]pyrimidin-6-yl]amino]-N,1-dimethyl-cyclopentane-carboxamide]",25 to 200
15,"CC(=O)N1CCC(Nc2ncc3c(Br)nn(-c4cc(F)c5ncccc5c4)c3n2)CC1 [1-[4-[[3-bromo-1-(8-fluoro-6-quinolyl)pyrazolo[3,4-d]pyrimidin-6-yl]amino]-1-piperidyl]ethanone]",25 to 200
16,"CC#CC(=O)NCCc1cc(-n2nc(Br)c3cnc(N[C@@H]4CC[C@@](C)(C(=O)NC)C4)nc32)cc2cccnc12 [(1R,3R)-3-[[3-bromo-1-[8-[2-(but-2-ynoylamino)ethyl]-6-quinolyl]pyrazolo [3,4-d]pyrimidin-6-yl]amino]-N,1-dimethyl-cyclopentanecarboxamide]",25 to 200
17,"O=C([C@@H]1CC[C@@H](Nc2ncc3c(Br)nn(-c4ccc5ncccc5c4)c3n2)C1)N1CC(N2CCS(=O)(=O)CC2)C1 [((1R,3R)-3-((3-bromo-1-(quinolin-6-yl)-1H-pyrazolo[3,4-d]pyrimidin-6-yl)amino)cyclo-pentyl)(3-(1,1-dioxidothiomorpholino)azetidin-1-yl)methanone]",25 to 200
18,"N#CCN1CCN(C(=O)[C@@H]2CC[C@@H](Nc3ncc4c(Br)nn(-c5cc(F)c6ncccc6c5)c4n3)C2)CC1 [2-[4-[(1R,3R)-3-[[3-bromo-1-(8-fluoro-6-quinolyl)pyrazolo[3,4-d]pyrimidin-6-yl]amino]cyclopentanecarbonyl]piperazin-1-yl]acetonitrile]",25 to 200
19,N#Cc1cc(-n2nc(Br)c3cnc(N[C@@H]4CC[C@@H](C(=O)NC5CCC(C#N)C5)C4)nc32)cc2cccnc12 (some centres unmarked),25 to 200
20,"COCCNC(=O)[C@@H]1CC[C@@H](Nc2ncc3c(Br)nn(-c4ccc5cn[nH]c5c4)c3n2)C1 [(1R,3R)-3-((3-bromo-1-(1H-indazol-6-yl)-1H-pyrazolo[3,4-d]pyrimidin-6-yl)amino)-N-(2-methoxyethyl)cyclopentane-1-carboxamide]",500 to 1000
21,"CNC(=O)[C@]1(C)CC[C@@H](Nc2ncc3c(Br)nn(-c4cc(C#N)cc(OC5CNC5)c4)c3n2)C1 [(1R,3R)-3-[[1-[3-(azetidin-3-yloxy)-5-cyano-phenyl]-3-bromo-pyrazolo[3,4-d]pyrimidin-6-yl]amino]-N,1-dimethyl-cyclopentanecarboxamide]",25 to 200
22,"CNC(=O)[C@]1(C)CC[C@@H](Nc2ncc3c(Br)nn(-c4ccc5c(c4)CN(S(C)(=O)=O)CC5)c3n2)C1 [(1R,3R)-3-[[3-bromo-1-(2-methylsulfonyl-3,4-dihydro-1H-isoquinolin-7-yl)pyrazolo [3,4-d]pyrimidin-6-yl]amino]-N,1-dimethyl-cyclopentanecarboxamide]",25 to 200
23,CC1N(C)C(=O)CN1C(=O)[C@@H]1CC[C@@H](Nc2ncc3c(Br)nn(-c4cc(F)c5ncccc5c4)c3n2)C1 (mixture of isomers),< 25
